± gives the standard deviation of the averaged measurements.
Experiments:
DASATINIB = compound: Cc1nc(Nc2ncc(C(=O)Nc3c(C)cccc3Cl)s2)cc(N2CCN(CCO)CC2)n1 [DASATINIB]; assay: surviving fraction relative to DMSO-only wells; higher = less growth inhibition; conditions: exposure time: 5 days
Summary of the method: (§1)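 Log-phase tumour cell lines were seeded at 250–500 cells per well in 384-well plates. After 24 hours they were exposed continuously for five days to inhibitors at 0.5, 1, 5, 10, 50, 100, 500 and 1000 nM. Viability was read by CellTiter-Glo luminescence after 10 minutes at room temperature, and surviving fraction is luminescence normalised to the median of DMSO-only wells. Each line was screened three times and kept only if replicate Pearson r >0.7 and median Z' >0.3.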

[1] = compound: CNCc1ccc(-c2[nH]c3cc(F)cc4c3c2CCNC4=O)cc1; assay: as above; conditions: exposure time: 5 days
Summary of the method: as §1

Row | Test System | surviving fraction (DASATINIB; 0.5 nM) | surviving fraction (DASATINIB; 1 nM) | surviving fraction (DASATINIB; 5 nM) | surviving fraction (DASATINIB; 10 nM) | surviving fraction (DASATINIB; 50 nM) | surviving fraction (DASATINIB; 100 nM) | surviving fraction (DASATINIB; 500 nM) | surviving fraction (DASATINIB; 1000 nM) | surviving fraction ([1]; 0.5 nM) | surviving fraction ([1]; 1 nM) | surviving fraction ([1]; 5 nM) | surviving fraction ([1]; 10 nM) | surviving fraction ([1]; 50 nM) | surviving fraction ([1]; 100 nM) | surviving fraction ([1]; 500 nM) | surviving fraction ([1]; 1000 nM)
1 | HCC78 LUNG | 0.662 ± 0.064 | 0.783 ± 0.025 | 0.849 ± 0.084 | 0.914 ± 0.068 | 0.569 ± 0.15 | 0.235 ± 0.019 | 0.175 ± 0.056 | 0.176 ± 0.045 | 1 ± 0.17 | 0.867 ± 0.05 | 1.12 ± 0.22 | 1.13 ± 0.2 | 0.828 ± 0.093 | 1.02 ± 0.15 | 0.936 ± 0.091 | 0.911 ± 0.043
2 | HOS BONE | 0.906 ± 0.018 | 0.908 ± 0.022 | 0.821 ± 0.015 | 0.763 ± 0.048 | 0.693 ± 0.0078 | 0.604 ± 0.015 | 0.382 ± 0.035 | 0.358 ± 0.014 | 1.02 ± 0.017 | 1.05 ± 0.034 | 1.01 ± 0.015 | 1.029 ± 0.01 | 1.01 ± 0.023 | 0.994 ± 0.022 | 1.02 ± 0.019 | 0.9833 ± 0.0055
3 | SJSA1 BONE | 1.23 ± 0.065 | 1.14 ± 0.044 | 1.16 ± 0.19 | 1.24 ± 0.1 | 0.0427 ± 0.0032 | 1.6 ± 0.093 | 1.7 ± 0.029 | 0.174 ± 0.019 | 1.35 ± 0.059 | 1.7 ± 0.1 | 1.6 ± 0.045 | 1.8 ± 0.1 | 1.7 ± 0.073 | 1.76 ± 0.059 | 1.65 ± 0.017 | 1.74 ± 0.068
4 | HCC1395 BREAST | 0.813 ± 0.065 | 0.961 ± 0.1 | 0.891 ± 0.068 | 0.902 ± 0.044 | 0.763 ± 0.093 | 0.704 ± 0.091 | 0.583 ± 0.067 | 0.591 ± 0.017 | 0.901 ± 0.016 | 0.981 ± 0.02 | 1.09 ± 0.011 | 0.92 ± 0.058 | 0.873 ± 0.12 | 0.828 ± 0.071 | 0.736 ± 0.041 | 0.809 ± 0.028
5 | CAL51 BREAST | 0.838 ± 0.069 | 0.8707 ± 0.0049 | 0.832 ± 0.047 | 0.737 ± 0.046 | 0.491 ± 0.036 | 0.386 ± 0.025 | 0.248 ± 0.019 | 0.238 ± 0.033 | 0.935 ± 0.033 | 0.96 ± 0.04 | 0.927 ± 0.023 | 0.848 ± 0.052 | 0.954 ± 0.019 | 0.819 ± 0.021 | 0.706 ± 0.035 | 0.604 ± 0.021
6 | MDAMB157 BREAST | 0.954 ± 0.12 | 0.915 ± 0.021 | 0.775 ± 0.071 | 0.688 ± 0.074 | 0.438 ± 0.025 | 0.35 ± 0.031 | 0.238 ± 0.04 | 0.232 ± 0.038 | 0.959 ± 0.026 | 0.91 ± 0.025 | 1.04 ± 0.053 | 1.03 ± 0.09 | 0.921 ± 0.088 | 1 ± 0.12 | 0.73 ± 0.03 | 0.691 ± 0.015
7 | SG43 HEADNECK | 0.98 ± 0.19 | 1.02 ± 0.16 | 0.592 ± 0.2 | 0.581 ± 0.2 | 0.337 ± 0.078 | 0.273 ± 0.13 | 0.206 ± 0.023 | 0.177 ± 0.054 | 1.13 ± 0.22 | 1.05 ± 0.17 | 0.927 ± 0.14 | 0.82 ± 0.18 | 1.06 ± 0.26 | 1.13 ± 0.24 | 1.15 ± 0.14 | 1.46 ± 0.17
8 | MDAMB231 BREAST | 0.803 ± 0.011 | 0.794 ± 0.033 | 0.653 ± 0.022 | 0.571 ± 0.02 | 0.25 ± 0.0064 | 0.171 ± 0.0089 | 0.1411 ± 0.0013 | 0.153 ± 0.0031 | 0.937 ± 0.013 | 0.967 ± 0.027 | 0.971 ± 0.06 | 0.959 ± 0.021 | 0.917 ± 0.015 | 0.891 ± 0.037 | 0.824 ± 0.02 | 0.764 ± 0.0086
9 | CAL72 BONE | 1.01 ± 0.048 | 1.01 ± 0.041 | 0.862 ± 0.16 | 0.618 ± 0.25 | 0.269 ± 0.12 | 0.233 ± 0.12 | 0.226 ± 0.12 | 0.221 ± 0.12 | 1.09 ± 0.041 | 1.072 ± 0.0085 | 1.1 ± 0.026 | 1.08 ± 0.016 | 0.999 ± 0.073 | 0.961 ± 0.075 | 0.962 ± 0.032 | 0.902 ± 0.019
10 | VP229 BREAST | 0.813 ± 0.044 | 0.855 ± 0.081 | 0.708 ± 0.031 | 0.619 ± 0.027 | 0.467 ± 0.032 | 0.484 ± 0.0085 | 0.45 ± 0.031 | 0.484 ± 0.018 | 1.15 ± 0.18 | 1.01 ± 0.14 | 1.04 ± 0.058 | 1.01 ± 0.12 | 0.954 ± 0.042 | 0.848 ± 0.076 | 0.823 ± 0.05 | 0.917 ± 0.067

— the supplement of paper PMC6045584
